{"source": "patent US9067977B2", "about": "“Peptides derivatized with A-B-C-D- and their therapeutical use” (Novo Nordisk A/S, priority 2007, dated 2015)", "target": "human serum albumin (HSA) (Homo sapiens, UniProt P02768)", "sequence (P02768 25-609)": "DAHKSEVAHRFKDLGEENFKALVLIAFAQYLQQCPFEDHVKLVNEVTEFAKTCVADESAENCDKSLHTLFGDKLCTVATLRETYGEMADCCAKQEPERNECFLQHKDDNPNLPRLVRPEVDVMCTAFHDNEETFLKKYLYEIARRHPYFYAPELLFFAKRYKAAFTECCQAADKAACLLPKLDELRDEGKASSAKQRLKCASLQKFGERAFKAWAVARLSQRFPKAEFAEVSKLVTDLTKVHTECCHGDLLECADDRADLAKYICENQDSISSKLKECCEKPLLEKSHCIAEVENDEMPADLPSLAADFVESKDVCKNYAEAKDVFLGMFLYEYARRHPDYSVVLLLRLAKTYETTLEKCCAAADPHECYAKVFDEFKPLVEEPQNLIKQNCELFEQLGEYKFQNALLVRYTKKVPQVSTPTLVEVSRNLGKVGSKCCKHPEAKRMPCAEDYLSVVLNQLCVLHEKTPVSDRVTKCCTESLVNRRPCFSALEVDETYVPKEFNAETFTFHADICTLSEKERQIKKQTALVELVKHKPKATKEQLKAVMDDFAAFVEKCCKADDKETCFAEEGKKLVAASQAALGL", "experiment": "in vitro", "conditions": "pH 7.4", "experimental": "Streptavidin-SPA beads (GE Healthcare RPNQ0009) were incubated with biotinylated HSA for 5 hours. The beads were washed with buffer to remove unbound HSA. […] After 20 hours of gentle rocking at room temperature the plates were centrifuged and counted on a TopCounter.", "data": [{"smiles": "CC[C@H](C)[C@H](NC(=O)[C@H](Cc1ccccc1)NC(=O)[C@H](CCC(=O)O)NC(=O)[C@H](CCCCNC(=O)COCCOCCNC(=O)CC[C@H](NC(=O)CC[C@H](NC(=O)CCCCCCCCCCCNC(=O)CCCS(=O)(=O)NC(=O)CCCCCCCCCCCCCCCc1nnn[nH]1)C(=O)O)C(=O)O)NC(=O)[C@H](C)NC(=O)[C@H](C)NC(=O)[C@H](CCC(N)=O)NC(=O)CNC(=O)[C@H](CCC(=O)O)NC(=O)[C@H](CC(C)C)NC(=O)[C@H](Cc1ccc(O)cc1)NC(=O)[C@H](CO)NC(=O)[C@H](CO)NC(=O)[C@@H](NC(=O)[C@H](CC(=O)O)NC(=O)[C@H](CO)NC(=O)[C@@H](NC(=O)[C@H](Cc1ccccc1)NC(=O)[C@@H](NC(=O)CNC(=O)[C@H](CCC(=O)O)NC(=O)C(C)(C)NC(=O)[C@@H](N)Cc1c[nH]cn1)[C@@H](C)O)[C@@H](C)O)C(C)C)C(=O)N[C@@H](C)C(=O)N[C@@H](Cc1c[nH]c2ccccc12)C(=O)N[C@@H](CC(C)C)C(=O)N[C@@H](CCCCN)C(=O)NCC(=O)O", "note": "[Example 43, N-epsilon26-[2-(2-{2-[(S)-4-Carboxy-4-((S)-4-carboxy-4-{12-[4-(16-(1H-tetrazol-5-yl)hexadecanoylsulfamoyl)butyrylamino]dodecanoylamino}butyrylamino)butyrylamino]ethoxy}ethoxy)acetyl][Aib8,Lys33,Arg34]GLP-1-(7-34)]", "values": [{"measurement": "EC50", "result": "1 to 100", "unit": "nM"}]}]}
